According to ChEMBL document CHEMBL1159238, “Brevitaxin, a new diterpenolignan from the bark of Taxus brevifolia” (1995):
Active and inactive are the calls of the source. The calls are words filed in the database; no cut-off is given here.

Key:
NCI60 = experiment: Cytotoxicity against human NCI60 cells; type: functional, cell-based
DU-145 = experiment: Cytotoxicity against human DU145 cells; type: functional; settings: read-out: ED50 (the source's name)

COc1cc([C@@H]2Oc3c(C(C)C)cc4c(=O)cc5c(cc4c3O[C@H]2CO)C=CC(=O)C5(C)C)ccc1O [BREVITAXIN]
Activity (NCI60): Active
EC50 (DU-145): 6.8 µM
